Experimental data reported in patent publication US7595401B2, “Therapeutic compounds and their use in cancer” (Myriad Pharmaceuticals, Inc., priority 2006, dated 2009).

system: purified human Hsp90; experiment: Binding Assay: fluorescence polarization with BODIPY-labeled geldanamycin; conditions: 5 μM compound, BODIPY-GM 10 nM, Hsp90 30 nM
In short: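 Compounds in 2% DMSO final compete with 10 nM BODIPY-GM for 30 nM purified human Hsp90, incubated overnight at room temperature in pH 7.3 HEPES buffer containing Na2MoO4 and DTT. Polarization (mP, ex/em 485/530) normalized to DMSO gives percent inhibition; autofluorescence-confounded data excluded.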

Structure (SMILES) | % Inhibition at 5 μM Compound Concentration
Cc1ncsc1CCn1cnc(N)c2nc(Sc3cc4c(cc3Br)OCO4)nc1-2 [Example 331, 8-[(6-Bromo-1,3-benzodioxol-5-yl)thio]-3-[2-(4-methyl-1,3-thiazol-5-yl)ethyl]-3H-purin-6-amine] | 25.0%
CC(C)(NCCn1cnc(N)c2nc(Sc3cc4c(cc3Br)OCO4)nc1-2)c1ccccn1 [Example 333, 8-[(6-Bromo-1,3-benzodioxol-5-yl)thio]-3-{2-[(1-methyl-1-pyridin-2-ylethyl)amino]ethyl}-3H-purin-6-amine] | 43.0%
COc1ccc(OC)c(Sc2nc3c(N)ncn(CCn4ccnc4)c-3n2)c1 [Example 336, 8-[(2,5-Dimethoxyphenyl)thio]-3-[2-(1H-imidazol-1-yl)ethyl]-3H-purin-6-amine] | 13.0%
CCOC(=O)N1CCCCC1CCn1cnc(N)c2nc(Sc3cc(OC)ccc3OC)nc1-2 (centres unmarked) [Example 338, 2-{2-[6-amino-8-(2,5-dimethoxy-phenylsulfanyl)-purin-3-yl]-ethyl}-piperidine-1-carboxylic acid ethyl ester] | 0%
CCOC(=O)N1CCCCC1CCn1cnc(N)c2nc(Sc3cc4c(cc3Br)OCO4)nc1-2 (centres unmarked) [Example 340, Ethyl 2-(2-{6-amino-8-[(6-bromo-1,3-benzodioxol-5-yl)thio]-3H-purin-3-carboxylate] | 23%
COc1ccc(OC)c(Sc2nc3c(N)ncn(CCC4CCN(C(=O)OC(C)(C)C)CC4)c-3n2)c1 [Example 343, tert-Butyl 4-(2-{6-amino-8-[(2,5-dimethoxyphenyl)thio]-3H-purin-3-yl}ethyl)piperidine-1-carboxylate] | 0%
CC(C)(C)OC(=O)N1CCC(CCn2cnc(N)c3nc(Sc4cc5c(cc4Br)OCO5)nc2-3)CC1 [Example 344, tert-Butyl 4-(2-{6-amino-8-[(6-bromo-1,3-benzodioxol-5-yl)thio]-3H-purin-3-yl}ethyl)piperidine-1-carboxylate] | 22%
CC(C)(C)OC(=O)N1CCCC(CCn2cnc(N)c3nc(Sc4cc5c(cc4Br)OCO5)nc2-3)C1 (centres unmarked) [Example 345, tert-Butyl 3-(2-{6-amino-8-[(6-bromo-1,3-benzodioxol-5-yl)thio]-3H-purin-3-yl}ethyl)piperidine-1-carboxylate] | 3%
COc1ccc(OC)c(Sc2nc3c(N)ncn(CCC4CCOCC4)c-3n2)c1 [Example 349, 8-[(2,5-Dimethoxyphenyl)thio]-3-[2-(tetrahydro-2H-pyran-4-yl)ethyl]-3H-purin-6-amine] | 12%
Nc1ncn(CCC2CCOCC2)c2nc(Sc3cc4c(cc3Br)OCO4)nc1-2 [Example 350, 8-[(6-Bromo-1,3-benzodioxol-5-yl)thio]-3-[2-(tetrahydro-2H-pyran-4-yl)ethyl]-3H-purin-6-amine] | 25%
CC1(C)CC(CCn2cnc(N)c3nc(Sc4cc5c(cc4Br)OCO5)nc2-3)CC(C)(C)N1 [Example 351, 8-[(6-Bromo-1,3-benzodioxol-5-yl)thio]-3-[2-(2,2,6,6-tetramethylpiperidin-4-yl)ethyl]-3H-purin-6-amine] | 8%
CN1CCCC1CCn1cnc(N)c2nc(Sc3cc4c(cc3Br)OCO4)nc1-2 (centres unmarked) [Example 352, 8-[(6-Bromo-1,3-benzodioxol-5-yl)thio]-3-[2-(1-methylpyrrolidin-2-yl)ethyl]-3H-purin-6-amine] | 35%
Nc1ncn(CCC23CC4CC(CC(C4)C2)C3)c2nc(Sc3cc4c(cc3Br)OCO4)nc1-2 [Example 357, 3-[2-(1-Adamantyl)ethyl]-8-[(6-bromo-1,3-benzodioxol-5-yl)thio]-3H-purin-6-amine] | 0%
COc1ccc(OC)c(Sc2nc3c(N)ncn(CCC4CCN(C=O)CC4)c-3n2)c1 [Example 359, 4-(2-{6-Amino-8-[(2,5-dimethoxyphenyl)thio]-3H-purin-3-yl}ethyl)piperidine-1-carbaldehyde] | 3%
COc1ccc(OC)c(Sc2nc3c(N)ncn(CCC4CC(C)(C)NC(C)(C)C4)c-3n2)c1 [Example 360, 8-[(2,5-Dimethoxyphenyl)thio]-3-[2-(2,2,6,6-tetramethylpiperidin-4-yl)ethyl]-3H-purin-6-amine] | 5%
CC(=O)N1CCC(CCn2cnc(N)c3nc(Sc4cc5c(cc4Br)OCO5)nc2-3)CC1 [Example 365, 3-[2-(1-Acetylpiperidin-4-yl)ethyl]-8-[(6-bromo-1,3-benzodioxol-5-yl)thio]-3H-purin-6-amine] | 31%

same assay, conditions: BODIPY-GM 10 nM, Hsp90 30 nM

Structure (SMILES) | IC50
Cc1ncsc1CCn1c(Sc2cc3c(cc2Br)OCO3)nc2c(N)ncnc21 [Example 330, 8-[(6-Bromo-1,3-benzodioxol-5-yl)thio]-9-[2-(4-methyl-1,3-thiazol-5-yl)ethyl]-9H-purin-6-amine] | 70 nM
COc1ccc(OC)c(Sc2nc3c(N)ncnc3n2CCNC(C)(C)c2ccccn2)c1 [Example 334, 8-[(2,5-Dimethoxyphenyl)thio]-9-{2-[(1-methyl-1-pyridin-2-ylethyl)amino]ethyl}-9H-purin-6-amine] | 2300 nM
COc1ccc(OC)c(Sc2nc3c(N)ncnc3n2CCn2ccnc2)c1 [Example 335, 8-[(2,5-Dimethoxyphenyl)thio]-9-[2-(1H-imidazol-1-yl)ethyl]-9H-purin-6-amine] | 3000 nM
CCOC(=O)N1CCCCC1CCn1c(Sc2cc(OC)ccc2OC)nc2c(N)ncnc21 (centres unmarked) [Example 337, 2-{2-[6-Amino-8-(2,5-dimethoxy-phenylsulfanyl)-purin-9-yl]-ethyl}-piperidine-1-carboxylic acid ethyl ester] | > 8000 nM
CCOC(=O)N1CCCCC1CCn1c(Sc2cc3c(cc2Br)OCO3)nc2c(N)ncnc21 (centres unmarked) [Example 339, Ethyl 2-(2-{6-amino-8-[(6-bromo-1,3-benzodioxol-5-yl)thio]-9H-purin-9-yl}ethyl)piperidine-1-carboxylate] | 115 nM
CC(C)(C)OC(=O)N1CCC(CCn2c(Sc3cc4c(cc3Br)OCO4)nc3c(N)ncnc32)CC1 [Example 341, tert-Butyl 4-(2-{6-amino-8-[(6-bromo-1,3-benzodioxol-5-yl)thio]-9H-purin-9-yl}ethyl)piperidine-1-carboxylate] | 200 nM
COc1ccc(OC)c(Sc2nc3c(N)ncnc3n2CCC2CCN(C(=O)OC(C)(C)C)CC2)c1 [Example 342, tert-Butyl 4-(2-{6-amino-8-[(2,5-dimethoxyphenyl)thio]-9H-purin-9-yl}ethyl)piperidine-1-carboxylate] | 19000 nM
CC(C)(C)OC(=O)N1CCCC(CCn2c(Sc3cc4c(cc3Br)OCO4)nc3c(N)ncnc32)C1 (centres unmarked) [Example 346, tert-Butyl 3-(2-{6-amino-8-[(6-bromo-1,3-benzodioxol-5-yl)thio]-9H-purin-9-yl}ethyl)piperidine-1-carboxylate] | 325 nM
COc1ccc(OC)c(Sc2nc3c(N)ncnc3n2CCC2CCCN(C(=O)OC(C)(C)C)C2)c1 (centres unmarked) [Example 347, tert-Butyl 3-(2-{6-amino-8-[(2,5-dimethoxyphenyl)thio]-9H-purin-9-yl}ethyl)piperidine-1-carboxylate] | 2500 nM
COc1ccc(OC)c(Sc2nc3c(N)ncnc3n2CCC2CCOCC2)c1 [Example 348, 8-[(2,5-Dimethoxyphenyl)thio]-9-[2-(tetrahydro-2H-pyran-4-yl)ethyl]-9H-purin-6-amine] | 800 nM
Nc1ncnc2c1nc(Sc1cc3c(cc1Br)OCO3)n2CCC1CCOCC1 [Example 353, 8-[(6-Bromo-1,3-benzodioxol-5-yl)thio]-9-[2-(tetrahydro-2H-pyran-4-yl)ethyl]-9H-purin-6-amine] | 57 nM
CC1(C)CC(CCn2c(Sc3cc4c(cc3Br)OCO4)nc3c(N)ncnc32)CC(C)(C)N1 [Example 354, 8-[(6-Bromo-1,3-benzodioxol-5-yl)thio]-9-[2-(2,2,6,6-tetramethylpiperidin-4-yl)ethyl]-9H-purin-6-amine] | 250 nM
CN1CCCC1CCn1c(Sc2cc3c(cc2Br)OCO3)nc2c(N)ncnc21 (centres unmarked) [Example 355, 8-[(6-Bromo-1,3-benzodioxol-5-yl)thio]-9-[2-(1-methylpyrrolidin-2-yl)ethyl]-9H-purin-6-amine] | > 25000 nM
Nc1ncnc2c1nc(Sc1cc3c(cc1Br)OCO3)n2CCC12CC3CC(CC(C3)C1)C2 [Example 356, 9-[2-(1-Adamantyl)ethyl]-8-[(6-bromo-1,3-benzodioxol-5-yl)thio]-9H-purin-6-amine] | > 25000 nM
COc1ccc(OC)c(Sc2nc3c(N)ncnc3n2CCC2CCN(C=O)CC2)c1 [Example 358, 4-(2-{6-Amino-8-[(2,5-dimethoxyphenyl)thio]-9H-purin-9-yl}ethyl)piperidine-1-carbaldehyde] | 450 nM
COc1ccc(OC)c(Sc2nc3c(N)ncnc3n2CCC2CC(C)(C)NC(C)(C)C2)c1 [Example 361, 8-[(2,5-Dimethoxyphenyl)thio]-9-[2-(2,2,6,6-tetramethylpiperidin-4-yl)ethyl]-9H-purin-6-amine] | 2900 nM
CCOc1ccc(OCC)c(Sc2nc3c(N)ncnc3n2CCC2CCN(C(=O)OC(C)(C)C)CC2)c1 [Example 362, tert-Butyl 4-(2-{6-amino-8-[(2,5-diethoxyphenyl)thio]-9H-purin-9-yl}ethyl)piperidine-1-carboxylate] | > 25000 nM
Nc1ncnc2c1nc(Sc1cc3c(cc1Br)OCO3)n2CCC1CCN(C=O)CC1 [Example 363, 4-(2-{6-Amino-8-[(6-bromo-1,3-benzodioxol-5-yl)thio]-9H-purin-9-yl}ethyl)piperidine-1-carbaldehyde] | 300 nM
CC(=O)N1CCC(CCn2c(Sc3cc4c(cc3Br)OCO4)nc3c(N)ncnc32)CC1 [Example 364, 9-[2-(1-Acetylpiperidin-4-yl)ethyl]-8-[(6-bromo-1,3-benzodioxol-5-yl)thio]-9H-purin-6-amine] | 102 nM
